Data taken from patent US6514914B1, “Inhibition of phospholipase D” (priority 1999, dated 2003).
“Also recorded” adds a separate entry of the source. Where two headings read alike, the source gives them in different places.

What was measured:
[1] = tested on: phospholipase D in sweet corn kernel; assay: Phospholipase D activity by release of radiolabelled choline, fractions not distinguished; format: biochemical, Zea mays; conditions: sweet corn kernel preparations, fraction not specified
Protocol: Protein Extraction. Sweet corn (Zea mays L. cv Peaches and Cream) was used for this study. The kernels were obtained locally from a grocery store and stored frozen at −20° C. until it was used for protein extraction. […] The fraction comprising the starch granules was removed by centrifuging the samples at 2500×g for 10 minutes. […] The supernatant from this step was centrifuged at 105,000×g to pellet the microsomal membranes. The supernatant comprising the cytosol was subjected to ammonium sulphate fractionation at 30 and 60% saturation. The precipitated protein was collected by centrifugation at 15000×g and redissolved in 10 mM Tris-HCl pH 7.0 and dialyzed overnight with the same buffer, also containing 0.1 mM DTT, with two changes of 2 L each. […] All steps of protein extraction procedure were carried out at 4° C.
Enzyme Assay. […] The basic assay mixture contained 0.1 M Tris-HCl (pH 7.5), 0.2 mM EGTA, membrane or cytosol protein (2.5 μg), and approximately 100,000 dpm of choline-labelled phosphatidylcholine in 0.1% (v/v) Triton-X 100 (0.01% final), to make a total volume of 1 ml. To study the regulation of PLD by alcohols, aldehydes and metal ions, the appropriate amounts of the reagent solutions were added to the basic reaction mixture. Similarly, citrate and Tris-HCl buffers were used to study the effect of pH on PLD activity. The reaction was terminated after 10 minutes by adding 100 μL of 4 N HCl followed by 1 mL of chloroform/methanol (2:1, v/v) and left overnight. The amount of [^3H]choline released during the reaction was determined by mixing a 0.5 ml aliquot of the aqueous phase directly into 5 ml of scintillation fluid (Ecolume, ICN) and determining the amount of radiolabel using a Beckman LS 6800 Scintillation counter (Beckman Instruments Inc.).
Protein Extraction: Sweet corn (Zea mays L. cv Peaches and Cream) was used for this study. The kernels were obtained locally from a grocery store and stored frozen at −20° C. until used. Frozen kernels were homogenized in 0.1 M Tris-HCl buffer at pH 7.5, containing 1 mM dithiothreitol, I mM phenylmethanesulfonylfluoride, 2 mM EDTA and 1 mM EGTA. The homogenate was filtered through four layers of cheese clothe. After removing the debris, the homogenate was subjected to differential centrifugation to separate mitochondria, microsomes and cytosol. The fraction comprising starch granules was removed by centrifuging the samples at 2500×g for 10 min. The resulting supernatant was subjected to centrifugation at 15000×g to pellet the mitochondrial membrane fraction. The supernatant from this step was centrifuged at 105,000×g to pellet the microsomal membranes. The supernatant was subjected to ammonium sulfate fractionation at 30 and 60% saturation to precipitate the cytosolic proteins. The precipitated proteins were pelleted by centrifugation at 15000×g and dissolved in 10 mM Tris HCI, pH 7.5, and dialyzed overnight in the same buffer also containing 0.1 mM DTT. Resuspended microsomal, mitochondrial membrane preparation and the cytosolic proteins were stored at −80° C. until used for phospholipase D assays.
Assay for Phospholipase D: Phospholipase D activity was determined by the liberation of choline from choline methyl labelled dipalmitoylphosphatidylcholine [L3-phosphatidyl (N-methyl-3H) choline 1,2-dipalmitoyl]. The basic assay mixture contained 0.1 M. Tris-HCl, pH 7.5, 0.2 mM EGTA, 1-2.5 ug of membrane or cytosolic protein (precipitated at 60% ammonium sulfate saturation) and 100,000 dpm of choline-labelled phosphatidylcholine in 0.1% Triton X-100 (final 0.01%), in a total volume of 1 ml. Hexanal and hexanol was added to the assay mixture and incubated for 5 min prior to the addition of substrate. The reaction was terminated after 10 min by the addition of 100 uL of 4N HCl, followed by 1 ml of chloroform: methanol (2:1 v/v) and left overnight.

[2] = tested on: cytosolic PLD of sweet corn kernel; assay: Phospholipase D activity by release of radiolabelled choline, cytosolic fraction; format: biochemical, Zea mays
Protocol: (§1) Protein Extraction. Sweet corn (Zea mays L. cv Peaches and Cream) was used for this study. The kernels were obtained locally from a grocery store and stored frozen at −20° C. until it was used for protein extraction. Frozen kernels were homogenized in 0.1 m Tris-HCl buffer at pH 7.5 essentially as described by Pinhero et al. (1998), except that sucrose was not included in the homogenizing buffer. The mitochondrial, microsomal and the cytosolic fractions were collected by differential centrifugation (Pinhero et al., 1998). The fraction comprising the starch granules was removed by centrifuging the samples at 2500×g for 10 minutes. The resulting supernatant was subjected to centrifugation at 15,000×g to pellet the mitochondrial membrane fraction (Edwards and Gardestrom, 1987). The supernatant from this step was centrifuged at 105,000×g to pellet the microsomal membranes. The supernatant comprising the cytosol was subjected to ammonium sulphate fractionation at 30 and 60% saturation. The precipitated protein was collected by centrifugation at 15000×g and redissolved in 10 mM Tris-HCl pH 7.0 and dialyzed overnight with the same buffer, also containing 0.1 mM DTT, with two changes of 2 L each. Protein concentration was determined by the method of Bradford (1976) using bovine serum albumin as a standard. All steps of protein extraction procedure were carried out at 4° C.
(§2) Enzyme Assay. […] activity was determined as described by Pinhero et al. (1998) by measuring the release of radiolabelled choline from L3-phosphatidyl(N-methyl-^3H) choline,1,2-dipalmitoyl at 23° C. The basic assay mixture contained 0.1 M Tris-HCl (pH 7.5), 0.2 mM EGTA, membrane or cytosol protein (2.5 μg), and approximately 100,000 dpm of choline-labelled phosphatidylcholine in 0.1% (v/v) Triton-X 100 (0.01% final), to make a total volume of 1 ml. To study the regulation of PLD by alcohols, aldehydes and metal ions, the appropriate amounts of the reagent solutions were added to the basic reaction mixture. Similarly, citrate and Tris-HCl buffers were used to study the effect of pH on PLD activity. The reaction was terminated after 10 minutes by adding 100 μL of 4 N HCl followed by 1 mL of chloroform/methanol (2:1, v/v) and left overnight. The amount of [^3H]choline released during the reaction was determined by mixing a 0.5 ml aliquot of the aqueous phase directly into 5 ml of scintillation fluid (Ecolume, ICN) and determining the amount of radiolabel using a Beckman LS 6800 Scintillation counter (Beckman Instruments Inc.).

[3] = tested on: mitochondrial PLD of sweet corn kernel; assay: Phospholipase D activity by release of radiolabelled choline, mitochondrial fraction; format: biochemical, Zea mays
Protocol: as §1, §2

[4] = tested on: microsomal PLD of sweet corn kernel; assay: Phospholipase D activity by release of radiolabelled choline, microsomal fraction; format: biochemical, Zea mays
Protocol: as §1, §2

[5] = tested on: PLD in leaf and root tissues of maize seedlings; conditions: cited from earlier work
PLD = conditions: animal systems; cited from earlier work
phospholipase D = conditions: reported in plants; cited from earlier work
parsley leaves = assay: Parsley leaf senescence, excised leaves incubated in the dark for fourteen days; conditions: increasing amounts in 2.5 ml water with 0.001% Tween-20, fourteen days in the dark
Protocol: Mature parsley leaves were excised and floated in water to randomize the leaves. After thorough washing 10 leaflets were incubated in petri plates lined with Whatman #1 filter paper and containing 2.5 ml of water containing various amounts of hexanal and 0.001% final Tween −20. Controls with water alone and Tween −20 were also incubated. The petri plates were incubated in the dark for fourteen days. The leaves were removed, chopped to fine pieces, and portions used for protein and pigment analyses. For protein analysis, a known amount of leaf segments (usually 0.6-0.7 g) were ground with 0.1 N NaOH (1 ml). After removing the debris by centrifugation, protein was determined in aliquots, using the dye-binding method by Bradford, 1976. To measure the pigments, leaf segments were extracted with 5 ml of 95% ethanol overnight in the dark. The absorbance readings were measured at […] to estimate chlorophyll a, at 647 nm for chlorophyll b and at […] for carotenoid. The data presented are the mean of two independent estimations from two sets of leaves incubated separately.

[6] = maximal stimulation, at 50 μM magnesium chloride
[7] = increasing alcohol in the assay mixture
[8] = alcohol added to the assay mixture
[9] = 0.2 mM of added calcium (10 μM of free calcium)
[10] = maximal stimulation, at 0.5 mM of added calcium, 0.2 mM EGTA in assay
[11] = acetaldehyde, concentration not stated (discussion)

[Cl-].[K+] [KCl, potassium chloride]
effect on PLD activity [1]: did not affect PLD activity substantially; also recorded: did not appear to have any major effects on PLD activity | effect on cytosolic PLD activity ([2]; monovalent salt up to 5 mM): nearly similar activity with respect to their respective controls | effect on mitochondrial PLD activity ([3]; monovalent salt up to 5 mM): nearly similar activity with respect to their respective controls | effect on microsomal PLD activity ([4]; monovalent salt up to 5 mM): inhibited

[Cl-].[Na+] [sodium chloride]
effect on PLD activity [1]: did not affect PLD activity substantially; also recorded: did not appear to have any major effects on PLD activity | effect on cytosolic PLD activity ([2]; monovalent salt up to 5 mM): remained nearly the same | effect on mitochondrial PLD activity ([3]; monovalent salt up to 5 mM): remained nearly the same | effect on microsomal PLD activity ([4]; monovalent salt up to 5 mM): remained nearly the same

[Cl-].[Cl-].[Mg+2] [magnesium chloride]
effect on PLD activity [5]: not stimulated | effect on PLD activity [1]: slightly higher than that of calcium ions | stimulation of cytosolic PLD activity [2, 6]: ~100% | stimulation of microsomal PLD activity [4, 6]: ~100%

CCCO [propanol]
effect on PLD activity [1]: marginal | effect on cytosolic PLD activity [2, 7]: initial promotion of cytosolic activity followed by a decline | effect on mitochondrial PLD activity [3, 8]: only a marginal increase | promotion in microsomal PLD activity ([4]; between 0.1 and 1% (v/v) propanol): 20-25%

hydroxy hexenal
effect on PLD (PLD): promoters of PLD

n-butanol
effect on PLD activity [1]: marginal | effect on cytosolic PLD activity [2, 7]: decline in activity | effect on mitochondrial PLD activity [3, 8]: decline in activity | effect on microsomal PLD activity [4, 8]: decline in activity

CCCCCC=O [hexanal]
effect on PLD activity [1]: potent inhibition of PLD activity; also recorded: effective inhibitors of PLD activity

[Ca+2] [calcium]
effect on PLD activity [5]: not stimulated | effect on PLD activity [1]: marginally stimulated | stimulation of cytosolic PLD activity [2, 9]: ~40% | stimulation of cytosolic PLD activity [2, 10]: 40-50% | effect on mitochondrial PLD activity ([3]; 0.5 mM of added calcium, 0.2 mM EGTA in assay): marginal stimulation | stimulation of microsomal PLD activity [4, 9]: ~40% | stimulation of microsomal PLD activity [4, 10]: 40-50%

Lysophosphatidylethanolamine
inhibition of phospholipase D (phospholipase D): potent inhibitor of phospholipase D

CC=O [acetaldehyde]
inhibition of cytosolic PLD activity ([2]; 2% v/v acetaldehyde): 80% | inhibition of cytosolic PLD activity [2, 11]: over 75% | inhibition of mitochondrial PLD activity ([3]; 2% v/v acetaldehyde): 80% | inhibition of mitochondrial PLD activity [3, 11]: over 75% | inhibition of microsomal PLD activity ([4]; 2% v/v acetaldehyde): 80% | inhibition of microsomal PLD activity [4, 11]: over 75%

CCCCCCO [hexanol]
amount of chlorophyll in parsley leaves versus controls (parsley leaves): greater amounts of chlorophyll than controls | senescence or aging of parsley leaves (parsley leaves): less senescence or aging has occurred | effect on PLD activity [1]: potent inhibition of PLD activity; also recorded: effective inhibitors of PLD activity

CCO [ethanol]
effect on cytosolic PLD activity ([2]; ethanol levels above 0.5%): inhibited | effect on cytosolic PLD activity [2, 7]: marginal stimulation initially followed by a decline in activity | effect on mitochondrial PLD activity [3, 8]: stimulation in the activity | stimulation of mitochondrial PLD activity ([3]; maximal stimulation, at 0.25% ethanol (v/v)): 100% | effect on microsomal PLD activity [4]: stimulation in the activity | stimulation of microsomal PLD activity [4]: 50%
